Assay results published in patent publication US20050191308A1 (priority 1999, published 2005).

Legend:
ESAT-6 = conditions: in vivo
blood cells = type: in vivo, C57BL/6 mice; conditions: 10 μg ESAT-6/dose, three times

## CCCCCCCCCCCCCCCCCC[N+](C)(C)CCCCCCCCCCCCCCCCCC.[Br-] [DDA]
ESAT-6
  ESAT-6 specific IgG (end-point titer), Expt. I: <3
  ESAT-6 specific IgG (end-point titer), Expt. II: <3
Blood cells
  ESAT-6 specific recall response, IFN-γ, Expt. I: <50 pg/mL
